Laboratory results taken from publication PMC6963856, “Increases in Hydrophilicity and Charge on the Polar Face of Alyteserin 1c Helix Change its Selectivity towards Gram-Positive Bacteria” (Antibiotics, 2019).
Where no end group is shown, it is not given here.

What was measured:
S. aureus ATCC25923 = assay type: cell-based, Staphylococcus aureus
Experimental: (§1) Antimicrobial assays were performed according to the Clinical and Laboratory Standards Institute, CLSI [45] with slight modifications. A bacterial culture in Mueller Hinton broth in exponential phase was diluted in Mueller Hinton broth until reaching an OD625 of 0.1 (approximately 1 × 10^8 CFU/mL). Then, this culture was diluted once more by a factor of 1:200. Subsequently, 90 µL of bacterial culture was incubated with 10 µL of peptide to reach a final inoculum of approximately 5 × 10^5 CFU/mL. The incubation time was 18–20 h in sterile 96-well plates at 37 °C. The peptides were applied at different serial dilutions (diluted in half) from 250 μM to 0.97 μM. As a negative control, phosphate-buffered saline (PBS; 138 mM NaCl, 3 mM KCl, 1.5 mM NaH2PO4, 8.1 mM Na2HPO4, pH 7.4) was used. After incubation, bacterial growth was visualized to obtain the minimum inhibitory concentration (MIC).

P. aeruginosa ATCC9027 = assay type: cell-based
Experimental: as §1

[1] = tested on: L. monocytogenes ATCCbaa751; assay type: cell-based
Experimental: as §1

human erythrocytes = details: cited from earlier work
Excerpt: A peptide of 23 amino acid residues with a net charge of +2, Alyerserin-1c (WT), was isolated for the first time from the cutaneous secretions of the Alytes obstetricans toad. […] Furthermore, the three-dimensional structure of Alyteserin-1c was characterized as an extended α-helix between Leu2 and Val21 residues. In a recent study by Aragón-Muriel et al., it was reported that the Alyteserin-1 ...

E. coli ATCC25922 = assay type: cell-based, Escherichia coli
Experimental: as §1

[2] = tested on: S. aureus ATCC43300 (MRSA); assay type: cell-based, Staphylococcus aureus
Experimental: as §1

[3] = tested on: S. aureus ATCC29213 (MSSA, ampicillin-resistant); assay type: cell-based, Staphylococcus aureus
Experimental: as §1

S. typhimurium ATCC14028 = assay type: cell-based
Experimental: as §1

B. cereus ATCC11778 = assay type: cell-based
Experimental: as §1

GLKEIFKAGLGSLVKGIAAHVAS-NH2 [WT, Alyteserin-1c, reference compound]
MIC S. aureus ATCC25923 (S. aureus ATCC25923): 250 µM | MIC P. aeruginosa ATCC9027 (P. aeruginosa ATCC9027): 31.3 µM | MIC L. monocytogenes ATCCbaa751 [1]: 125 µM | HC50 human erythrocytes (human erythrocytes): 220 µM | MIC E. coli ATCC25922 (E. coli ATCC25922): 15.2 µM

GLKRIFKSGLGKLVKGISAHVAS-NH2 [ΔM]
MIC S. aureus ATCC43300 [2]: 250 µM | MIC S. aureus ATCC25923 (S. aureus ATCC25923): 62.5 µM | MIC S. aureus ATCC29213 [3]: 250 µM | MIC S. typhimurium ATCC14028 (S. typhimurium ATCC14028): 125 µM | MIC B. cereus ATCC11778 (B. cereus ATCC11778): 125 µM | MIC L. monocytogenes ATCCbaa751 [1]: 62.5 µM | MIC E. coli ATCC25922 (E. coli ATCC25922): 62.5 µM
